From the supplement of paper PMC10307832

What was measured:
Experiment in all cases: relative viability (nuclei count vs DMSO), 5 days (fraction); higher = more cells survive
Tosedostat + Vorinostat = compound: CC(C)C[C@@H](C(=O)N[C@H](C(=O)OC1CCCC1)c1ccccc1)[C@H](O)C(=O)NO [Tosedostat] + O=C(CCCCCCC(=O)Nc1ccccc1)NO [Vorinostat] (partner 1 µM)
How it was run: (§1)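 Relative viability was taken as the ratio of nuclei in treated wells to nuclei in vehicle wells. Lung cancer cell lines in 1536-well plates received compounds by pin tool one day after seeding, either one drug alone or a fixed anchor-drug dose plus five library-drug doses (not always all listed) in √10 steps. Nuclei were counted on 4× images after 5 days of treatment, and values are medians of duplicate plates.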

Tosedostat + OSI-027 = compound: CC(C)C[C@@H](C(=O)N[C@H](C(=O)OC1CCCC1)c1ccccc1)[C@H](O)C(=O)NO [Tosedostat] + COc1cccc2cc(-c3nc([C@H]4CC[C@H](C(=O)O)CC4)n4ncnc(N)c34)[nH]c12 [OSI-027] (partner 0.5 µM)
How it was run: as §1

Tosedostat + Lapatinib = compound: CC(C)C[C@@H](C(=O)N[C@H](C(=O)OC1CCCC1)c1ccccc1)[C@H](O)C(=O)NO [Tosedostat] + CS(=O)(=O)CCNCc1ccc(-c2ccc3ncnc(Nc4ccc(OCc5cccc(F)c5)c(Cl)c4)c3c2)o1 [Lapatinib] (partner 2 µM)
How it was run: as §1

Tosedostat + Pemetrexed = compound: CC(C)C[C@@H](C(=O)N[C@H](C(=O)OC1CCCC1)c1ccccc1)[C@H](O)C(=O)NO [Tosedostat] + Nc1nc2[nH]cc(CCc3ccc(C(=O)N[C@@H](CCC(=O)O)C(=O)O)cc3)c2c(=O)[nH]1 [Pemetrexed] (partner 0.2 µM)
How it was run: as §1

With UMC-11 as the cell line, how does the relative viability (Tosedostat + Vorinostat; first compound 0.02 µM) read?
The relative viability was 0.459.

And the relative viability (Tosedostat + Vorinostat; first compound 0.06325 µM)?
Its relative viability is 0.459.

What about the relative viability (Tosedostat + Vorinostat; first compound 0.2 µM) of the same cell line?
Its relative viability is 0.372.

And the relative viability (Tosedostat + Vorinostat; first compound 0.6325 µM)?
The relative viability was 0.388.

What about the relative viability (Tosedostat + Vorinostat; first compound 2 µM) of the same cell line?
The relative viability was 0.391.

What about the relative viability (Tosedostat + OSI-027; first compound 0.02 µM) of the same cell line?
The relative viability was 0.473.

And the relative viability (Tosedostat + OSI-027; first compound 0.06325 µM)?
The relative viability was 0.464.

What about the relative viability (Tosedostat + OSI-027; first compound 0.2 µM) of the same cell line?
The relative viability was 0.397.

And the relative viability (Tosedostat + OSI-027; first compound 0.6325 µM)?
Its relative viability is 0.449.

What about the relative viability (Tosedostat + OSI-027; first compound 2 µM) of the same cell line?
The relative viability was 0.473.

And the relative viability (Tosedostat + Lapatinib; first compound 0.02 µM)?
Its relative viability is 1.05.

What about the relative viability (Tosedostat + Lapatinib; first compound 0.06325 µM) of the same cell line?
Its relative viability is 1.01.

What about the relative viability (Tosedostat + Lapatinib; first compound 0.2 µM) of the same cell line?
Its relative viability is 0.957.

And the relative viability (Tosedostat + Lapatinib; first compound 0.6325 µM)?
Its relative viability is 1.19.

What about the relative viability (Tosedostat + Lapatinib; first compound 2 µM) of the same cell line?
The relative viability was 0.96.

What about the relative viability (Tosedostat + Pemetrexed; first compound 0.02 µM) of the same cell line?
Its relative viability is 0.86.

What about the relative viability (Tosedostat + Pemetrexed; first compound 0.06325 µM) of the same cell line?
The relative viability was 0.723.

And the relative viability (Tosedostat + Pemetrexed; first compound 0.2 µM)?
The relative viability was 0.85.

And the relative viability (Tosedostat + Pemetrexed; first compound 0.6325 µM)?
Its relative viability is 0.84.

What about the relative viability (Tosedostat + Pemetrexed; first compound 2 µM) of the same cell line?
Its relative viability is 0.94.
